Where two headings read alike, the source gives them in different places. Each block holds one compound with its values, some of them ahead of it.
Columns and labels:
[1] = target: T1, human recombinant Monoacylglycerol Lipase (Homo sapiens, UniProt Q99685); assay: MAGL inhibition enzymatic assay, fluorogenic substrate 7-HCA, IC50 at T=0 min or after 30 minute incubation (T=30 min); type: biochemical; conditions: geometric mean of 2-4 determinations unless otherwise indicated
T1 sequence (Q99685 1-303): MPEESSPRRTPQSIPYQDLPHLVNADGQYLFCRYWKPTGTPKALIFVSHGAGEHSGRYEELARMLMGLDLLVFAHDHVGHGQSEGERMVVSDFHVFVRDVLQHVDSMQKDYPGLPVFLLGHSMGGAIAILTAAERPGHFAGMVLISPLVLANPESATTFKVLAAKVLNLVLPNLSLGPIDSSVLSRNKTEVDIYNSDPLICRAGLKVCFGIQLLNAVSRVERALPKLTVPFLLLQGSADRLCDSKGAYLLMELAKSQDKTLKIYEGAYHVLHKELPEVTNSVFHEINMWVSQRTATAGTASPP
Method: An equal volume of 7-HCA in assay buffer with 10% DMSO was added either immediately (T=0 min) or after a 30 minute incubation (T=30 min) to initiate the reaction. […] After these dilutions, the final concentration of the test compound ranged from 3 μM to 0.03 nM. […] IC50 values were generated based on a four parameter fit model using ABASE software from IDBS.

[2] = target: T1, human recombinant Monoacylglycerol Lipase; assay: MAGL inactivation, enzyme progress curves, kinact/KI; type: biochemical; conditions: from enzyme progress curves, T = 0 min protocol; geometric mean of 2-4 determinations unless otherwise indicated
Outline: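 Human recombinant MAGL ([…]) with compound, 7-HCA substrate (final 5 μM) added immediately (T=0 min), in pH 7.4 HEPES buffer with 0.1% Triton X-100 and 25% glycerin. Fluorescence (Ex/Em 340/465) was read every minute over 60 min, giving progress curves at decreasing compound concentrations (final 3 μM to 0.03 nM).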

human recombinant FAAH = target: T2, human recombinant FAAH (Homo sapiens, UniProt O00519); assay: FAAH inhibition enzymatic assay, fluorescent substrate Arachidonoyl-AMC, 30 minute incubation; type: biochemical; conditions: T = 30 min (30 minute incubation); geometric mean of 2-4 determinations unless otherwise indicated
T2 construct: purchased Cayman 10010183
T2 sequence (O00519 1-579): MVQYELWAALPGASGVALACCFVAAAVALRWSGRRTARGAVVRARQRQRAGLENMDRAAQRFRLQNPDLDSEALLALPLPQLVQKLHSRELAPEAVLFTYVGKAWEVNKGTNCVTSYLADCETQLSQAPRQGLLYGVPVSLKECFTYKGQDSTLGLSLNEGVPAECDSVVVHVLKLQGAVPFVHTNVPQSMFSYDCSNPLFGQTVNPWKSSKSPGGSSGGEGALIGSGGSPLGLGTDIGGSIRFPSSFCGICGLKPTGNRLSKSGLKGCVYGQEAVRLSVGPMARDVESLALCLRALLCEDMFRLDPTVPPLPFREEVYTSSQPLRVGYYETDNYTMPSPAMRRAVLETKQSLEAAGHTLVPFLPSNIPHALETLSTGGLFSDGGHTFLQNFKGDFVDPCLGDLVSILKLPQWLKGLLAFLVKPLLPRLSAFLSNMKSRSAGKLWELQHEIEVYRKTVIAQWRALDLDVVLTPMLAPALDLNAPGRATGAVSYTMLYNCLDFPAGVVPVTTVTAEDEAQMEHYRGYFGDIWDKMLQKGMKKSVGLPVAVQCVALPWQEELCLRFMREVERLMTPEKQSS

[3] = Prodrug in vivo pharmacokinetics in rats after intravenous administration (LC-MS-MS of prodrug and parent); conditions: Wistar Hann rats; for Cmax: Wistar Hann, rat, iv
[4] = Prodrug in vivo pharmacokinetics in dogs after intravenous administration (LC-MS-MS of prodrug and parent); conditions: Beagle dogs
[5] = T = 0 min (substrate added immediately), read-out: MAGL (T = 0 min) IC50
[6] = T = 30 min (30 minute incubation), read-out: MAGL (T = 30 min) IC50
[7] = Example 9 (parent) in plasma, IV Example 31 at 1.48 mg/kg, Mean
[8] = Example 9 (parent) in plasma, IV Example 31 at 1.48 mg/kg, Rat 01
[9] = Example 9 (parent) in plasma, IV Example 31 at 1.48 mg/kg, Rat 02
[10] = Example 9 (parent) in plasma, IV Example 31 at 0.7 mg/kg, Dog 01
[11] = Example 9 (parent) in plasma, IV Example 31 at 0.7 mg/kg, Dog 02
[12] = Example 9 (parent) in plasma, IV Example 31 at 0.7 mg/kg, Mean
[13] = Example 6 (parent) in plasma, IV Example 32 at 2 mg/kg, Mean
[14] = Example 6 (parent) in plasma, IV Example 32 at 2 mg/kg, Rat 03
[15] = Example 6 (parent) in plasma, IV Example 32 at 2 mg/kg, Rat 04
[16] = Example 6 (parent) in plasma, IV Example 32 at 1 mg/kg, Dog 03
[17] = Example 6 (parent) in plasma, IV Example 32 at 1 mg/kg, Dog 04
[18] = Example 6 (parent) in plasma, IV Example 32 at 1 mg/kg, Mean

Compound: O=C(O[C@H](CO)C(F)(F)F)N1CCC2(CC1)C[C@@H](NS(=O)(=O)c1ccccc1)CO2 [Example 9, (2R)-1,1,1-Trifluoro-3-hydroxypropan-2-yl (3R)-3-[(phenylsulfonyl)amino]-1-oxa-8-azaspiro[4.5]decane-8-carboxylate]
IC50 [1, 5]: 40 nM
IC50 [1, 6]: 4 nM
MAGL kinact/KI [2]: 8588 1/s per M
IC50 (human recombinant FAAH): > 30000 nM
% AUC Extrap [3, 7]: 2.46%
AUC [3, 7]: 146 ng·h/mL
AUC Extrap [3, 7]: 150 ng·h/mL
Rate Constant [3, 7]: 0.500 h⁻¹
Tmax [3, 7]: 4.98 min
T½ [3, 7]: 84.6 min
% AUC Extrap [3, 8]: 2.08%
AUC [3, 8]: 118 ng·h/mL
AUC Extrap [3, 8]: 121 ng·h/mL
Rate Constant [3, 8]: 0.560 h⁻¹
Tmax [3, 8]: 4.98 min
T½ [3, 8]: 74.4 min
% AUC Extrap [3, 9]: 2.83%
AUC [3, 9]: 173 ng·h/mL
AUC Extrap [3, 9]: 178 ng·h/mL
Rate Constant [3, 9]: 0.440 h⁻¹
Tmax [3, 9]: 4.98 min
T½ [3, 9]: 94.2 min
Cmax ([3]; in vivo, 1.48 mg/kg, Example 9 (parent) in plasma, IV Example 31 at 1.48 mg/kg, Mean): 316 ng/mL
Cmax ([3]; in vivo, 1.48 mg/kg, Example 9 (parent) in plasma, IV Example 31 at 1.48 mg/kg, Rat 01): 253 ng/mL
Cmax ([3]; in vivo, 1.48 mg/kg, Example 9 (parent) in plasma, IV Example 31 at 1.48 mg/kg, Rat 02): 378 ng/mL
AUC [4, 10]: 1350 ng·h/mL
AUC Extrap [4, 10]: 1550 ng·h/mL
Tmax [4, 10]: 15 min
T½ [4, 10]: 642 min
AUC [4, 11]: 1460 ng·h/mL
AUC Extrap [4, 11]: 1560 ng·h/mL
Tmax [4, 11]: 4.98 min
T½ [4, 11]: 482 min
AUC [4, 12]: 1410 ng·h/mL
AUC Extrap [4, 12]: 1560 ng·h/mL
Tmax [4, 12]: 10.2 min
T½ [4, 12]: 562 min

IC50 [1, 5]: 83 nM
IC50 [1, 6]: 7 nM
MAGL kinact/KI [2]: 13406 1/s per M
IC50 (human recombinant FAAH): > 30000 nM
melting point: 132 °C
% AUC Extrap [3, 13]: 3.46%
AUC [3, 13]: 158 ng·h/mL
AUC Extrap [3, 13]: 162 ng·h/mL
Rate Constant [3, 13]: 2.22 h⁻¹
Tmax [3, 13]: 3.48 min
T½ [3, 13]: 20.5 min
% AUC Extrap [3, 14]: 6.04%
AUC [3, 14]: 102 ng·h/mL
AUC Extrap [3, 14]: 109 ng·h/mL
Rate Constant [3, 14]: 2.86 h⁻¹
Tmax [3, 14]: 4.98 min
T½ [3, 14]: 14.5 min
% AUC Extrap [3, 15]: 0.880%
AUC [3, 15]: 213 ng·h/mL
AUC Extrap [3, 15]: 215 ng·h/mL
Rate Constant [3, 15]: 1.57 h⁻¹
Tmax [3, 15]: 1.98 min
T½ [3, 15]: 26.5 min
Cmax ([3]; plasma, 2 mg/kg, Example 6 (parent) in plasma, IV Example 32 at 2 mg/kg, Mean): 309 ng/mL
Cmax ([3]; plasma, 2 mg/kg, Example 6 (parent) in plasma, IV Example 32 at 2 mg/kg, Rat 03): 234 ng/mL
Cmax ([3]; plasma, 2 mg/kg, Example 6 (parent) in plasma, IV Example 32 at 2 mg/kg, Rat 04): 384 ng/mL
AUC [4, 16]: 591 ng·h/mL
AUC Extrap [4, 16]: 595 ng·h/mL
Tmax [4, 16]: 4.98 min
T½ [4, 16]: 246 min
AUC [4, 17]: 705 ng·h/mL
AUC Extrap [4, 17]: 710 ng·h/mL
Tmax [4, 17]: 4.98 min
T½ [4, 17]: 322 min
AUC [4, 18]: 648 ng·h/mL
AUC Extrap [4, 18]: 653 ng·h/mL
Tmax [4, 18]: 4.98 min
T½ [4, 18]: 284 min
Compound: O=C(O[C@H](CO)C(F)(F)F)N1CCC2(CC1)CN(S(=O)(=O)c1ccc(F)cc1)CCO2 [Example 6, (2R)-1,1,1-Trifluoro-3-hydroxypropan-2-yl 4-[(4-fluorophenyl)sulfonyl]-1-oxa-4,9-diazaspiro[5.5]undecane-9-carboxylate]
